According to PubChem BioAssay (NCI):
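Results reflect a 48-hour exposure of cells in 96-well plates to compound at five concentrations. Here, GI50 denotes the concentration required for 50% inhibition of growth. TGI is the concentration that stops growth completely.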

Tests used:
Assay in all cases: NCI anticancer screen, dose series, 48 h
[1] = tested on: KM12 colon
[2] = tested on: NCI-H522 lung
[3] = tested on: NCI-H23 lung
[4] = tested on: SF-268 CNS
[5] = tested on: OVCAR-4 ovarian
[6] = tested on: SK-MEL-28 melanoma
[7] = tested on: SF-295 CNS
[8] = tested on: SNB-19 CNS
[9] = tested on: MDA-MB-231 breast
[10] = tested on: MCF7 breast
[11] = tested on: SK-OV-3 ovarian
[12] = tested on: IGROV1 ovarian
[13] = tested on: HCT-116 colon
[14] = tested on: NCI/ADR-RES ovarian
[15] = tested on: UACC-62 melanoma
[16] = tested on: SR leukemia
[17] = tested on: EKVX NSCLC
[18] = tested on: SF-539 CNS
[19] = tested on: HL-60(TB) leukemia
[20] = tested on: OVCAR-8 ovarian
[21] = tested on: DU-145 prostate
[22] = tested on: MOLT-4 leukemia
[23] = tested on: OVCAR-5 ovarian
[24] = tested on: SN12C renal
[25] = tested on: UO-31 renal
[26] = tested on: SK-MEL-5 melanoma
[27] = tested on: U251 CNS
[28] = tested on: RXF 393 renal
[29] = tested on: NCI-H226 lung
[30] = tested on: 786-0 renal
[31] = tested on: A498 renal
[32] = tested on: TK-10 renal
[33] = tested on: UACC-257 melanoma
[34] = tested on: SNB-75 CNS
[35] = tested on: A549 NSCLC
[36] = tested on: M14 melanoma
[37] = tested on: ACHN renal
[38] = tested on: HCC-2998 colon
[39] = tested on: SK-MEL-2 melanoma
[40] = tested on: MALME-3M melanoma
[41] = tested on: COLO 205 colon
[42] = tested on: SW-620 colon
[43] = tested on: RPMI-8226 leukemia
[44] = tested on: LOX IMVI melanoma
[45] = tested on: K-562 leukemia
[46] = tested on: BT-549 breast
[47] = tested on: PC-3 prostate
[48] = tested on: MDA-MB-435
[49] = tested on: HCT-15 colon
[50] = tested on: HT29 colon
[51] = tested on: NCI-H460 lung
[52] = tested on: CAKI-1 renal
[53] = tested on: HOP-62 NSCLC
[54] = tested on: OVCAR-3 ovarian
[55] = tested on: HS 578T breast

COc1ccc2c(c1)c(-c1ccc(-c3cn(C)c4ccc(OC)cc34)s1)cn2C
GI50 [1]: > 100 µM
TGI [1]: > 100 µM
GI50 [2]: > 100 µM
TGI [2]: > 100 µM
GI50 [3]: > 100 µM
TGI [3]: > 100 µM
GI50 [4]: > 100 µM
TGI [4]: > 100 µM
GI50 [5]: 90.2 µM
TGI [5]: > 100 µM
GI50 [6]: > 100 µM
TGI [6]: > 100 µM
GI50 [7]: > 100 µM
TGI [7]: > 100 µM
GI50 [8]: > 100 µM
TGI [8]: > 100 µM
GI50 [9]: > 100 µM
TGI [9]: > 100 µM
GI50 [10]: > 100 µM
TGI [10]: > 100 µM
GI50 [11]: > 100 µM
TGI [11]: > 100 µM
GI50 [12]: > 100 µM
TGI [12]: > 100 µM
GI50 [13]: > 100 µM
TGI [13]: > 100 µM
GI50 [14]: > 100 µM
TGI [14]: > 100 µM
GI50 [15]: > 100 µM
TGI [15]: > 100 µM
GI50 [16]: > 100 µM
TGI [16]: > 100 µM
GI50 [17]: > 100 µM
TGI [17]: > 100 µM
GI50 [18]: > 100 µM
TGI [18]: > 100 µM
GI50 [19]: > 100 µM
TGI [19]: > 100 µM
GI50 [20]: > 100 µM
TGI [20]: > 100 µM
GI50 [21]: > 100 µM
TGI [21]: > 100 µM
GI50 [22]: > 100 µM
TGI [22]: > 100 µM
GI50 [23]: > 100 µM
TGI [23]: > 100 µM
GI50 [24]: > 100 µM
TGI [24]: > 100 µM
GI50 [25]: > 100 µM
TGI [25]: > 100 µM
GI50 [26]: > 100 µM
TGI [26]: > 100 µM
GI50 [27]: > 100 µM
TGI [27]: > 100 µM
GI50 [28]: > 100 µM
TGI [28]: > 100 µM
GI50 [29]: > 100 µM
TGI [29]: > 100 µM
GI50 [30]: > 100 µM
TGI [30]: > 100 µM
GI50 [31]: > 100 µM
TGI [31]: > 100 µM
GI50 [32]: > 100 µM
TGI [32]: > 100 µM
GI50 [33]: > 100 µM
TGI [33]: > 100 µM
GI50 [34]: 49.4 µM
TGI [34]: > 100 µM
GI50 [35]: > 100 µM
TGI [35]: > 100 µM
GI50 [36]: > 100 µM
TGI [36]: > 100 µM
GI50 [37]: > 100 µM
TGI [37]: > 100 µM
GI50 [38]: > 100 µM
TGI [38]: > 100 µM
GI50 [39]: > 100 µM
TGI [39]: > 100 µM
GI50 [40]: > 100 µM
TGI [40]: > 100 µM
GI50 [41]: > 100 µM
TGI [41]: > 100 µM
GI50 [42]: > 100 µM
TGI [42]: > 100 µM
GI50 [43]: > 100 µM
TGI [43]: > 100 µM
GI50 [44]: > 100 µM
TGI [44]: > 100 µM
GI50 [45]: > 100 µM
TGI [45]: > 100 µM
GI50 [46]: > 100 µM
TGI [46]: > 100 µM
GI50 [47]: > 100 µM
TGI [47]: > 100 µM
GI50 [48]: > 100 µM
TGI [48]: > 100 µM
GI50 [49]: > 100 µM
TGI [49]: > 100 µM
GI50 [50]: > 100 µM
TGI [50]: > 100 µM
GI50 [51]: > 100 µM
TGI [51]: > 100 µM
GI50 [52]: > 100 µM
TGI [52]: > 100 µM
GI50 [53]: > 100 µM
TGI [53]: > 100 µM
GI50 [54]: > 100 µM
TGI [54]: > 100 µM
GI50 [55]: > 100 µM
TGI [55]: > 100 µM
